From patent US20230219986A1, “NOVEL AMINOPYRIMIDINE EGFR INHIBITOR” (QILU PHARMACEUTICAL CO., LTD., priority 2020, published 2023)

Key:
wild-type EGFR = target: T1, wild-type EGFR (Homo sapiens, UniProt P00533); test: Enzymology experiment in vitro (HTRF/FRET kinase activity), wild-type EGFR; type: biochemical; details: HTRF KinEASE-TK, read-out: EGFR (WT) IC50
T1 construct: purchased Signalchem
Summary of the method: (§1)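 HTRF KinEASE-TK format: EGFR enzyme preincubated with compound 10 min at room temperature, then peptide substrate plus ATP added for 40 min. Detection with EDTA, XL665-streptavidin and Eu³⁺-labeled antibody for 1 h.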

[1] = target: T2, L858R/T790M/C797S triple mutant EGFR (Homo sapiens, UniProt P00533, C797S/L858R/T790M); test: Enzymology experiment in vitro (HTRF/FRET kinase activity), L858R/T790M/C797S triple mutant EGFR; type: biochemical; details: HTRF KinEASE-TK, read-out: EGFR (L858R/T790M/C797S) IC50
T2 construct: purchased Signalchem
Summary of the method: as §1

[2] = target: Ba/F3 L858R/T790M/C797S EGFR triple mutant cell line (Homo sapiens, UniProt P00533, T790M/C797S/L858R, cells depend on it); test: Cell proliferation inhibition experiment (CellTiter-Glo), Ba/F3 L858R/T790M/C797S; type: cell-based; details: 72 hours, Cell Titer-Glo, read-out: Ba/F3 (L858R/T790M/C797S) IC50
[3] = target: Ba/F3 De119/T790M/C797S EGFR triple mutant cell line (Homo sapiens, UniProt P00533, T790M/C797S, cells depend on it, form not given); test: Cell proliferation inhibition experiment (CellTiter-Glo), Ba/F3 De119/T790M/C797S; type: cell-based; details: Ba/F3 Del19/T790M/C797S EGFR triple mutant cells, 72 hours, Cell Titer-Glo; read-out: Ba/F3 (Del19/T790M/C797S) IC50
[4] = tested on: EGFR wild-type cell line A431; test: Cell proliferation inhibition experiment (CellTiter-Glo), A431; type: cell-based; details: Homo sapiens, A-431, 72 h, A431 cells, Cell Titer-Glo, read-out: A431 EGFR WT IC50
Summary of the method: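 A431 cells, 800 per well, were cultured 24 h and then exposed to serially diluted compound (0.1% DMSO final) for 72 h at 37° C., 5% CO2.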

T2 sequence (P00533 25-1210 T790M/C797S/L858R): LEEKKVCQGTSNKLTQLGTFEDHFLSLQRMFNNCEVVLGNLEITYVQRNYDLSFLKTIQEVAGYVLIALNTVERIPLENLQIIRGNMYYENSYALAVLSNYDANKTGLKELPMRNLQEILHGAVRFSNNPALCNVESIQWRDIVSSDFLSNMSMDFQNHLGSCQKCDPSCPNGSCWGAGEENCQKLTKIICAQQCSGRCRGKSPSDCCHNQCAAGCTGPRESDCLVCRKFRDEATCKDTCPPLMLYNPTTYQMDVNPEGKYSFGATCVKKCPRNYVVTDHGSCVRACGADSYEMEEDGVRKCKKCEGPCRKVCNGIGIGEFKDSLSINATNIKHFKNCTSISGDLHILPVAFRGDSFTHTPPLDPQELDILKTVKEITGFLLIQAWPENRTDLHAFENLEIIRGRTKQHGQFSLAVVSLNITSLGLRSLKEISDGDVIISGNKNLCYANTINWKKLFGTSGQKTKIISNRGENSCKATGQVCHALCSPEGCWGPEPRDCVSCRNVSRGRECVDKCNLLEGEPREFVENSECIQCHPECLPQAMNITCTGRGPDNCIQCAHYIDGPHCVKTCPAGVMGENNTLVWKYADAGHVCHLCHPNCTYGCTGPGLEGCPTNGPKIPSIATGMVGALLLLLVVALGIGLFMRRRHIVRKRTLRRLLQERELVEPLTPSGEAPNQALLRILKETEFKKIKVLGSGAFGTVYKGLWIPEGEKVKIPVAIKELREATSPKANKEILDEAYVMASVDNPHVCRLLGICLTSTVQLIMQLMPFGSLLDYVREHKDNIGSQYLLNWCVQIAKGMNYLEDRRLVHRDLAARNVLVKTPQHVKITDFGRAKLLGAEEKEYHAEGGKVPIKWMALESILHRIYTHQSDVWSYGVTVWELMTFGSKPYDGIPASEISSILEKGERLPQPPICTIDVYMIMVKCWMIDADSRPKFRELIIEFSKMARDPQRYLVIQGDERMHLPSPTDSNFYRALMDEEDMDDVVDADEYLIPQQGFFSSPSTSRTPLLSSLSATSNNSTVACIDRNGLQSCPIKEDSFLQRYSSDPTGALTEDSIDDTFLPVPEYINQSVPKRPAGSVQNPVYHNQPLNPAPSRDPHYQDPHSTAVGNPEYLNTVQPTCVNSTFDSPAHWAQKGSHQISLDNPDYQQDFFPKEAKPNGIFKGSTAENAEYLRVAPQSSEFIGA
T1 sequence (P00533 25-1210): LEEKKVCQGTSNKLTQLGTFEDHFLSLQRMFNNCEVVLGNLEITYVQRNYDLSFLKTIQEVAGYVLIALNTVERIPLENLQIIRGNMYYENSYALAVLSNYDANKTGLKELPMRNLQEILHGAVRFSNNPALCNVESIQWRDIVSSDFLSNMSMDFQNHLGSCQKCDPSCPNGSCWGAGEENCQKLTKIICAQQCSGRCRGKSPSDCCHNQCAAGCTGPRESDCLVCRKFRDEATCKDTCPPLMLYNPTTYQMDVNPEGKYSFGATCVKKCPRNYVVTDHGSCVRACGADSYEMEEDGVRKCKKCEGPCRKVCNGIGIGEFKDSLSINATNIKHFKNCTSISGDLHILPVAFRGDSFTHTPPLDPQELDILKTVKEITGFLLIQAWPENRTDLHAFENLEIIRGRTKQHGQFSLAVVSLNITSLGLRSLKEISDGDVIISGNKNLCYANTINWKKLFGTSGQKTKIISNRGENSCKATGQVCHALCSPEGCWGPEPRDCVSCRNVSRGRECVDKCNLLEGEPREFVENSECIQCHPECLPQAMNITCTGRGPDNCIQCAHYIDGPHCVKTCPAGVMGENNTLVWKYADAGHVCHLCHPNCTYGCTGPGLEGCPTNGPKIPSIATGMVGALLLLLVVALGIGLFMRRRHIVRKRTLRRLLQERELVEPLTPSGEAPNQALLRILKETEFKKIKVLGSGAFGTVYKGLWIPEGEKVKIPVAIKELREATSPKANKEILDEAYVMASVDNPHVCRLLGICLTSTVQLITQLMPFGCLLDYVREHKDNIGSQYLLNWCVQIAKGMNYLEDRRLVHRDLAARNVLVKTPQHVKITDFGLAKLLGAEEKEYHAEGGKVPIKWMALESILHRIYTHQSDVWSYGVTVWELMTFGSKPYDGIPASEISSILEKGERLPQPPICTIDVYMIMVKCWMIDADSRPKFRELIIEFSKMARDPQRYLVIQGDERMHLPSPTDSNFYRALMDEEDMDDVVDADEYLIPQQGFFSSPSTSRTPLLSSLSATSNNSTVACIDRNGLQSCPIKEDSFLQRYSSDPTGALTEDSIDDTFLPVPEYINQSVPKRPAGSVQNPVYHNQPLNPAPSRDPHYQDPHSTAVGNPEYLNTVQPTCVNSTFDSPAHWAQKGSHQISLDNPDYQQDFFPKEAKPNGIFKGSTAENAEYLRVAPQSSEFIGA
Chain of Ba/F3 L858R/T790M/C797S EGFR triple mutant cell line (P00533 whole entry T790M/C797S/L858R): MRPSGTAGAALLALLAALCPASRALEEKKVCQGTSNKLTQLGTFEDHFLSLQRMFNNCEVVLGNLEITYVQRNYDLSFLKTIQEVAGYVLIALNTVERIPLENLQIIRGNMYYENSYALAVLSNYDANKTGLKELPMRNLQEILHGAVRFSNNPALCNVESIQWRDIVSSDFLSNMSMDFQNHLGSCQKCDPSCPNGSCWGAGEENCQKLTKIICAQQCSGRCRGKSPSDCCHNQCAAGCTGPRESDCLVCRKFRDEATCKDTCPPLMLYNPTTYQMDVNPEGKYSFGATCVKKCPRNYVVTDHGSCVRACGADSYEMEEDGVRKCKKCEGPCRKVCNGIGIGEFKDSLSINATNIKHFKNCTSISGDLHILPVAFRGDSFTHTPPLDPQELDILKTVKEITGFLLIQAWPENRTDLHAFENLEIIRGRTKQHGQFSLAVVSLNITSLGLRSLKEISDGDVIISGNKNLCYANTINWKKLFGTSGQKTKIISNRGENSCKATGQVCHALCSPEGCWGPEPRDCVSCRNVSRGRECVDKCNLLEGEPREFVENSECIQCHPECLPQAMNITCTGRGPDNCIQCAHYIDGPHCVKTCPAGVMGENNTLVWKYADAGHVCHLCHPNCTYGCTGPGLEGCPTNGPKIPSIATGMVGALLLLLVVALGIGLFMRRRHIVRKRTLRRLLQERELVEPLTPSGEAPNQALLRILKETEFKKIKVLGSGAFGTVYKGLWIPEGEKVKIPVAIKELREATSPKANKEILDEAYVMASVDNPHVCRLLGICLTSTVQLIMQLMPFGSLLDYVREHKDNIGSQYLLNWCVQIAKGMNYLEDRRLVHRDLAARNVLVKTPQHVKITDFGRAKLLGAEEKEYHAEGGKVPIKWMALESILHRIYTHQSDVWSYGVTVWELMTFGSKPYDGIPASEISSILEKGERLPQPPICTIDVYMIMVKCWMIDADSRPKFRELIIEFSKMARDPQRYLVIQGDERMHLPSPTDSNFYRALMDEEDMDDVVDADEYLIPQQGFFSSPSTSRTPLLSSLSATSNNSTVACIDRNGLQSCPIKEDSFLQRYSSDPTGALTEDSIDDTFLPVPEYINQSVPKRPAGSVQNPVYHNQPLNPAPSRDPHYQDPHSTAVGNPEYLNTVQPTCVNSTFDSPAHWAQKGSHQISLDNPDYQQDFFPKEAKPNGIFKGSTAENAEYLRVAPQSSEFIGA
Chain of Ba/F3 De119/T790M/C797S EGFR triple mutant cell line (P00533 with tags, fused parts or gaps DEL746-750/T790M/C797S, form open): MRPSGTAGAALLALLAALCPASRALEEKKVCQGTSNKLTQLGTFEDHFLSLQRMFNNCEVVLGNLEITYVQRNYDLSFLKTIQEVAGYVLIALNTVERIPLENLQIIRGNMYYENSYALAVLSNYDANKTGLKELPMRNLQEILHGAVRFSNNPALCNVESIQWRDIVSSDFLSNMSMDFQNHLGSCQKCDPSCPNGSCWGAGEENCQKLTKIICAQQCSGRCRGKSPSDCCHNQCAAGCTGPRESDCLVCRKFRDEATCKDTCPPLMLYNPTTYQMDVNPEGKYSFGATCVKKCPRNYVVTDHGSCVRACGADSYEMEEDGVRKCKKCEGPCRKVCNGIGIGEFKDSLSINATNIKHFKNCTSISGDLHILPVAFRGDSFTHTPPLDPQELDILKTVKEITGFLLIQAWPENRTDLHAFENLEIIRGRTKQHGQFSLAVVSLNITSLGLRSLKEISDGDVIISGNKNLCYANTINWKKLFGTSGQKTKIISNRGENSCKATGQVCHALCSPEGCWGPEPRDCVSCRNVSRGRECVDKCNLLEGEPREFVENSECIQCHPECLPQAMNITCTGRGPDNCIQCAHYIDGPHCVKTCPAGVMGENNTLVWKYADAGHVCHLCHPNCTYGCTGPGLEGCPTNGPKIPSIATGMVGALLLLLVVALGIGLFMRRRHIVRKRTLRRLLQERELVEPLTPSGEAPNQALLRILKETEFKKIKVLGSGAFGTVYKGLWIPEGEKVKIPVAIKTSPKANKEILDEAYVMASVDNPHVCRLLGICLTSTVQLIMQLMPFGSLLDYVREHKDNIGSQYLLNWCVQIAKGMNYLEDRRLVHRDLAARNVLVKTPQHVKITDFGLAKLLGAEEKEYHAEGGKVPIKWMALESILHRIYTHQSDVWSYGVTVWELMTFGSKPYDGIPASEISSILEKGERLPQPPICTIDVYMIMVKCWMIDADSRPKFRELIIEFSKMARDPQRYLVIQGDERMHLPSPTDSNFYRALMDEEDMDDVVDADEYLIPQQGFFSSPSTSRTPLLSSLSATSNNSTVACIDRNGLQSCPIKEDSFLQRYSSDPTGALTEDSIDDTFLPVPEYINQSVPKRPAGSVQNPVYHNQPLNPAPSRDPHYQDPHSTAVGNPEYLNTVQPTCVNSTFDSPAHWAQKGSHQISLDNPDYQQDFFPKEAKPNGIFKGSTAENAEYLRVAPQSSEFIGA

Q: How did the IC50 (wild-type EGFR) turn out when COc1cc(N2CCC(OCCN(C)C)CC2)c(-c2cnn(C)c2)cc1Nc1ncc(Br)c(Nc2ccc3nccnc3c2P(C)(C)=O)n1 [compound 198] was run?
A: 0.62 nM

Q: What about the IC50 [1] of the same compound?
A: 0.22 nM

Q: And the GI50 [2]?
A: 9.49 nM

Q: What about the GI50 [3] of the same compound?
A: 4.26 nM

Q: And the IC50 [4]?
A: 38 nM

Q: Which IC50 (wild-type EGFR) does the source give for CN1CCN(c2noc3c(Nc4ncc(Br)c(Nc5ccc6nccnc6c5P(C)(C)=O)n4)cc(-c4cnn(C)c4)cc23)CC1 [compound 200] here?
A: 7.56 nM

Q: And the IC50 [1]?
A: 0.19 nM

Q: What about the GI50 [2] of the same compound?
A: 22 nM

Q: And the GI50 [3]?
A: 7.47 nM

Q: And the IC50 [4]?
A: 69.6 nM

Q: Which IC50 (wild-type EGFR) does the source give for COc1cc(N2CCC3(CC2)CN(C(C)C)CCO3)c(-c2cnn(C)c2)cc1Nc1ncc(Br)c(Nc2ccc3nccnc3c2P(C)(C)=O)n1 [compound 202] here?
A: 3.74 nM

Q: What about the IC50 [1] of the same compound?
A: 0.59 nM

Q: What about the GI50 [2] of the same compound?
A: 3.75 nM

Q: What about the GI50 [3] of the same compound?
A: 2.93 nM

Q: What about the IC50 [4] of the same compound?
A: 91.3 nM

Q: How did the IC50 (wild-type EGFR) turn out when COc1cc(N2CCC3(CCOC3)C2)c(-c2cnn(C)c2)cc1Nc1ncc(Br)c(Nc2ccc3nccnc3c2P(C)(C)=O)n1 (stereo not shown) [compound 203] was run?
A: 21.2 nM

Q: What about the IC50 [1] of the same compound?
A: 0.47 nM

Q: What about the GI50 [2] of the same compound?
A: 20 nM

Q: What about the GI50 [3] of the same compound?
A: 10.6 nM

Q: And the IC50 [4]?
A: 351 nM

Q: What does the source list for COc1cc(N2CCC(N3CC(CF)C3)CC2)c(-c2cnn(C)c2)cc1Nc1ncc(Br)c(Nc2ccc3nccnc3c2P(C)(C)=O)n1 [compound 204]?
A: IC50 (wild-type EGFR): 1.57 nM; IC50 [1]: 0.25 nM; GI50 [2]: 11.2 nM; GI50 [3]: 5.19 nM; IC50 [4]: 66.9 nM

Q: Which IC50 (wild-type EGFR) does the source give for COc1cc(N2CCC3CCN(CCF)C3C2)c(-c2cnn(C)c2)cc1Nc1ncc(Br)c(Nc2ccc3nccnc3c2P(C)(C)=O)n1 (stereo not shown) [compound 205, (6-((5-Bromo-2-((4-(1-(2-fluoroethyl)octahydro-6H-pyrrolo[2,3-c]pyridin-6-yl)-2-methoxy-5-(1-methyl-1H-pyrazol-4-yl)phenyl)amino)pyrimidin-4-yl)amino)quinoxalin-5-yl)dimethylphosphine oxide] here?
A: 3.08 nM

Q: And the IC50 [1]?
A: 0.35 nM

Q: And the GI50 [2]?
A: 8.9 nM

Q: What about the GI50 [3] of the same compound?
A: 3.2 nM

Q: And the IC50 [4]?
A: 116 nM

Q: With COc1cc(N2CCC3CCN(CCOC(C)C)C3C2)c(-c2cnn(C)c2)cc1Nc1ncc(Br)c(Nc2ccc3nccnc3c2P(C)(C)=O)n1 (stereo not shown) [compound 206] as the compound, how does the IC50 (wild-type EGFR) read?
A: 8.46 nM

Q: What about the IC50 [1] of the same compound?
A: 0.62 nM

Q: What about the GI50 [2] of the same compound?
A: 30.2 nM

Q: And the GI50 [3]?
A: 7.62 nM

Q: And the IC50 [4]?
A: 298 nM

Q: Which results are given for COc1cc(N2CCC3(CC2)COCCN3C)c(-c2cnn(C)c2)cc1Nc1ncc(Br)c(Nc2cc3c(cc2N(C)S(C)(=O)=O)CC3)n1 [compound 208]?
A: IC50 (wild-type EGFR): 5.79 nM; IC50 [1]: 0.57 nM; GI50 [2]: 14.6 nM; GI50 [3]: 9.45 nM; IC50 [4]: 348 nM

Q: COc1cc(N2CCC(N3CCN(CCF)CC3)CC2)c(-c2cnn(C)c2)cc1Nc1ncc(Br)c(Nc2ccccc2N(C)S(=O)(=O)C2CC2)n1 [compound 209] was tested. Which IC50 (wild-type EGFR) did it give?
A: 9.74 nM

Q: What about the IC50 [1] of the same compound?
A: 0.73 nM

Q: What about the GI50 [2] of the same compound?
A: 12.6 nM

Q: What about the GI50 [3] of the same compound?
A: 7.18 nM

Q: And the IC50 [4]?
A: 171 nM

Q: How did the IC50 (wild-type EGFR) turn out when COc1cc(N2CCC(N3CCN(C)CC3)C(F)C2)c(-c2cnn(C)c2)cc1Nc1ncc(Br)c(Nc2ccccc2N(C)S(=O)(=O)C2CC2)n1 (stereo not shown) [compound 211] was run?
A: 10.9 nM

Q: And the IC50 [1]?
A: 0.61 nM

Q: What about the GI50 [2] of the same compound?
A: 24.8 nM

Q: What about the GI50 [3] of the same compound?
A: 14.3 nM

Q: And the IC50 [4]?
A: 354 nM

Q: Which IC50 (wild-type EGFR) does the source give for COc1cc(N2CCC(N3CCOCC3)CC2)c(-c2cnsc2)cc1Nc1ncc(Br)c(Nc2ccc3nccnc3c2P(C)(C)=O)n1 [compound 212] here?
A: 18.9 nM

Q: What about the IC50 [1] of the same compound?
A: 0.33 nM

Q: What about the GI50 [2] of the same compound?
A: 25.1 nM

Q: What about the GI50 [3] of the same compound?
A: 9.29 nM

Q: And the IC50 [4]?
A: 179 nM

Q: With COc1cc(N2CCC(N3CCOCC3)C(F)C2)c(-c2cnn(C)c2)cc1Nc1ncc(Br)c(Nc2ccc3nccnc3c2P(C)(C)=O)n1 (stereo not shown) [compound 214] as the compound, how does the IC50 (wild-type EGFR) read?
A: 1.86 nM

Q: And the IC50 [1]?
A: 0.36 nM

Q: What about the GI50 [2] of the same compound?
A: 4.87 nM

Q: And the GI50 [3]?
A: 1.47 nM

Q: What about the IC50 [4] of the same compound?
A: 139 nM

Q: With COc1cc(N2CCC3(CCOCC3)CC2)c(-c2cnn(C)c2)cc1Nc1ncc(Br)c(Nc2ccc3nccnc3c2P(C)(C)=O)n1 [compound 215] as the compound, how does the IC50 (wild-type EGFR) read?
A: 7.3 nM

Q: What about the IC50 [1] of the same compound?
A: 0.25 nM

Q: And the GI50 [2]?
A: 5.58 nM

Q: And the GI50 [3]?
A: 2.23 nM

Q: And the IC50 [4]?
A: 227 nM

Q: Which results are given for COc1cc(N2CCC(N(C)C)C(F)C2)c(-c2cnn(C)c2)cc1Nc1ncc(Br)c(Nc2ccc3nccnc3c2P(C)(C)=O)n1 (stereo not shown) [compound 216]?
A: IC50 (wild-type EGFR): 1.71 nM; IC50 [1]: 0.29 nM; GI50 [2]: 7.32 nM; GI50 [3]: 2.06 nM; IC50 [4]: 45.7 nM

Q: How did the IC50 (wild-type EGFR) turn out when COc1cc(N2CCN(CC3COC3)CC2)c(-c2cnn(C)c2)cc1Nc1ncc(Br)c(Nc2ccc3nccnc3c2P(C)(C)=O)n1 [compound 219, (6-((5-Bromo-2-((2-methoxy-5-(1-methyl-1H-pyrazol-4-yl)-4-(4-(oxetan-3-ylmethyl)piperazin-1-yl)phenyl)amino)pyrimidin-4-yl)amino)quinoxalin-5-yl)dimethylphosphine oxide] was run?
A: 1.66 nM

Q: What about the IC50 [1] of the same compound?
A: 0.12 nM

Q: What about the GI50 [2] of the same compound?
A: 1.08 nM

Q: What about the GI50 [3] of the same compound?
A: 1.1 nM

Q: And the IC50 [4]?
A: 32.1 nM

Q: For COc1cc(N2CCN(CCC(F)F)CC2)c(-c2cnn(C)c2)cc1Nc1ncc(Br)c(Nc2ccc3nccnc3c2P(C)(C)=O)n1 [compound 222, (6-((5-Bromo-2-((4-(4-(3,3-difluoropropyl)piperazin-1-yl)-2-methoxy-5-(1-methyl-1H-pyrazol-4-yl)phenyl)amino)pyrimidin-4-yl)amino)quinoxalin-5-yl)dimethylphosphine oxide], which IC50 (wild-type EGFR) is on record?
A: 4.22 nM

Q: And the IC50 [1]?
A: 0.3 nM

Q: And the GI50 [2]?
A: 2.02 nM

Q: And the GI50 [3]?
A: 1.22 nM

Q: And the IC50 [4]?
A: 70.4 nM

Q: For COc1cc(N2CCC3(CC2)CN(C(C)C)CC(C)(C)O3)c(-c2cnn(C)c2)cc1Nc1ncc(Br)c(Nc2ccc3nccnc3c2P(C)(C)=O)n1 [compound 224, (6-((5-Bromo-2-((4-(4-isopropyl-2,2-dimethyl-1-oxa-4,9-diazaspiro [5.5]undecane-9-yl)-2-methoxy-5-(1-methyl-1H-pyrazol-4-yl)phenyl)amino)pyrimidin-4-yl)amino)quinoxalin-5-yl)dimethylphosphine oxide], which IC50 (wild-type EGFR) is on record?
A: 10.7 nM

Q: And the IC50 [1]?
A: 4.31 nM

Q: What about the GI50 [2] of the same compound?
A: 13.2 nM

Q: And the GI50 [3]?
A: 8.88 nM

Q: And the IC50 [4]?
A: 336 nM

Q: Which results are given for COc1cc(N2CCC(OCC3CC3)CC2)c(-c2cnn(C)c2)cc1Nc1ncc(Br)c(Nc2ccc3ncccc3c2P(C)(C)=O)n1 [compound 225]?
A: IC50 (wild-type EGFR): 10.8 nM; IC50 [1]: 1.96 nM; GI50 [2]: 11.3 nM; GI50 [3]: 3.54 nM; IC50 [4]: 370 nM

Q: What does the source list for CCN1CCC2(CC1)CCN(c1cc(OC)c(Nc3ncc(Br)c(Nc4ccc5nccnc5c4P(C)(C)=O)n3)cc1-c1cnn(C)c1)CC2 [compound 226]?
A: IC50 (wild-type EGFR): 1.4 nM; IC50 [1]: 0.19 nM; GI50 [2]: 4.34 nM; GI50 [3]: 1.55 nM; IC50 [4]: 47.4 nM

Q: What does the source list for COc1cc(N2CCC3CCN(CC4CC4)C3C2)c(-c2cnn(C)c2)cc1Nc1ncc(Br)c(Nc2ccc3nccnc3c2P(C)(C)=O)n1 (stereo not shown) [compound 227]?
A: IC50 (wild-type EGFR): 2.69 nM; IC50 [1]: 0.59 nM; GI50 [2]: 6.64 nM; GI50 [3]: 2.78 nM; IC50 [4]: 34.7 nM

Q: What does the source list for COc1cc(N2CCC3(CC2)CCN(C(C)C)CC3)c(-c2cnn(C)c2)cc1Nc1ncc(Br)c(Nc2ccc3nccnc3c2P(C)(C)=O)n1 [compound 228]?
A: IC50 (wild-type EGFR): 1.04 nM; IC50 [1]: 0.48 nM; GI50 [2]: 8.5 nM; GI50 [3]: 4.58 nM; IC50 [4]: 44.8 nM

Q: With COc1cc(N2CCN(C3(C)CC3)CC2)c(-c2cnn(C)c2)cc1Nc1ncc(Br)c(Nc2ccc3nccnc3c2P(C)(C)=O)n1 [compound 229] as the compound, how does the IC50 (wild-type EGFR) read?
A: 8.53 nM

Q: And the IC50 [1]?
A: 0.42 nM

Q: What about the GI50 [2] of the same compound?
A: 12.1 nM

Q: What about the GI50 [3] of the same compound?
A: 3.76 nM

Q: And the IC50 [4]?
A: 164 nM

Q: Which results are given for COc1cc(N2CCC3(CCN(CCF)CC3)CC2)c(-c2cnn(C)c2)cc1Nc1ncc(Br)c(Nc2ccccc2P(C)(C)=O)n1 [compound 230]?
A: IC50 (wild-type EGFR): 12 nM; IC50 [1]: 0.29 nM; GI50 [2]: 10.1 nM; GI50 [3]: 4.47 nM; IC50 [4]: 126 nM
